Experimental data reported in patent US20150306110A1, “COMPOSITIONS AND METHODS FOR TREATMENT OF INFLAMMATION AND HYPERKERATOTIC LESIONS” (Novelix Pharmaceuticals, Inc., priority 2008, published 2015).
Converted amounts (≈) assume the structure as drawn.

Experiments:
[1] = Solubility in ethanol, DMSO and ethanol-Tween 80; format: physicochemical; conditions: for solubility: organic solvent or mixture
Experimental: After solution in ethanol or DMSO, or chemically similar solvents, NVX-207 or a related compound may be formulated with co-solvents such as Cremophor EL® and/or Tween® 80, in a similar manner described for taxanes. For example, the formulation approach for paclitaxel (TAXOL®; Bristol-Myers Squibb) was to use 50% Cremophor EL® and 50% ethanol. The pharmaceutical formulation of paclitaxel contains 30 mg paclitaxel dissolved in 5 ml of this (1:1, v/v) mixture. These and equivalent formulations allow for the application of NVX-207 in sufficiently high concentrations not only for topical, but also for intralesional and systemic (intravenous infusion) use. Solubility of NVX-207 in ethanol was determined to be at least 300 mg/ml and reached 250 mg/ml in DMSO. […] The solubility of NVX-207 in ethanol-Tween® 80 was evaluated. Two-hundred mg of NVX-207 was dissolved in 1 ml ethanol. […] Then an equal volume of Tween® 80 was added, to achieve a stock solution of 100 mg/ml of NVX-207. The stock solution was clear and yellow. Each stock solution was diluted first 1:1 (50 mg/ml NVX-207), then 1:5 (20 mg/ml NVX-207) and finally 1:10 (10 mg/ml NVX-207) with water. […] NVX-207 therefore has, apart from its higher activity, significant advantages over betulinic acid, that include higher activity, better solubility in pharmaceutically suitable solvents, and better handling.

MDA-MB-468 = assay: Cell growth/survival, MDA-MB-468 breast cancer cells; format: cell-based; conditions: Homo sapiens, TP53 mut.
Experimental: (§1) Melanoma cell lines used in this study were maintained in Dulbecco's modified Eagle medium (DMEM with 4500 mg/l glucose) supplemented with 10% FCS from Gibco BRL (Life Technologies, Berlin, Germany). The canine mastocytoma cell line C2 (DeVinney et al, Am. J. Respir. Cell Mol. Biol. 3:413-20, 1990) was used in this study, along with additional human cell lines: RD-ES and TC-71 (human Ewing's sarcoma), SAOS2 (human osteosarcoma), HT-1080 (human fibrosarcoma), Caco-2 (human colon adenocarcinoma), A549 (human lung adenocarcinoma), Hep-G2 and Hep-3B (human hepatocellular carcinoma), SK-N-DZ and SK-N-FI (human embryonal neuroblastoma), HTB9 (human bladder cancer), MDA-468 and MCF-7 (human breast cancer) and SW872 liposarcoma. All breast cancer cells were routinely cultured in DMEM/F-12 or in DMEM alone supplemented with 10% FCS at 37° C. in a humidified 5% CO2 atmosphere. RD-ES and TC-71 sarcoma cell lines were maintained in RPMI 1640 (Biochrom KG, Berlin, Germany) containing 10% FCS at 37° C. in a humidified 5% CO2 atmosphere. […]
(§2) Briefly, cells were maintained in standard medium, harvested, and plated at equal densities (750,000 cells in 5 cm tissue culture dishes). […] For the assessment of cell growth, the number of surviving cells was determined using an automated cell counter from Beckman Coulter GmbH (Krefeld, Germany). […]

MCF-7 = assay: Cell growth/survival, MCF-7 breast cancer cells; format: cell-based; conditions: Homo sapiens, MCF7, TP53 neg.
Experimental: as §1, §2

Melanoma-TLM1 = assay: Cell growth/survival, canine melanoma TLM1 cells; format: cell-based; conditions: Canis lupus familiaris
Experimental: as §1, §2

[2] = tested on: human umbilical vein endothelial cells (HUVEC); assay: Survival of HUVEC at 80% and 30% confluency; format: cell-based; conditions: 2.5 μM; for Mean survival, percentage of control-treated cells: HUVEC, n=3
Experimental: All cells were treated with 2.5 μM NVX-207. Percentage (means±S.E., n=3) of control-treated cells are given. […] Mean survival in NVX-207 treated fibroblasts at 80% confluency was 92% (S.E.=3.8) versus 3.8% mean survival (S.E.=0.4) at 30% confluency. […] HUVECs, keratinocytes and fibroblast cells were obtained from Lonza GmbH (Wuppertal, Germany) and cultivated according to the manufacturer's instructions.
Human umbilical vein endothelial cells (HUVEC), keratinocytes and fibroblast cells were obtained from Lonza GmbH (Wuppertal, Germany) and cultivated according to the manufacturer's instructions. […] The IC50 value of betulinic acid in human keratinocytes was recently determined to be ˜5.0 μg/ml (Tino Galgon al., Exp Dermatol. 14:736-43, 2005), while the IC50 of NVX-207 is ˜0.7 µg/ml. […] Mean survival in NVX-207 treated fibroblasts at 80% confluency was 92% (S.E.=3.8) versus 3.8% mean survival (S.E.=0.4) at 30% confluency. […] Under normal physiological conditions, the endothelium, as well as skin fibroblasts and skin keratinocytes, show relatively low turn-over and limited cell divisions to maintain tissue integrity.
Keratinocytes at high confluence (e.g., 80%) mimic normal physiological conditions in which these cells divide more slowly (fewer cell divisions per unit of time). In contrast, keratinocytes in psoriatic lesions divide more rapidly, as do keratinocytes cultured at lower confluency (e.g., 30%). Thus, the 30% confluency conditions were considered a model for psoriasis whereas the behavior of 80% confluent cells more closely reflects the conditions observed in normal skin.

[3] = tested on: canine lesion clinically diagnosed as basal cell carcinoma; assay: Topical treatment of canine basal cell carcinoma; format: in vivo, dog
Text: A 1% topical solution of NVX-207 in 20% ethanol, 20% Tween® 80 was applied to an exophytically growing slightly bleeding (on contact) tumor on the nose of a dog using a NVX-207 soaked cotton swab every second to third day for 7 weeks.

[4] = tested on: canine mammary carcinoma, scent gland carcinoma, soft tissue sarcoma; assay: Activity of NVX-207 in additional canine cancer patients (summary); conditions: dog, in vivo
Text: Overall survival time is given in months.

C=C(C)[C@@H]1CC[C@]2(C(=O)OCC(N)(CO)CO)CC[C@]3(C)[C@H](CC[C@@H]4[C@@]5(C)CC[C@H](OC(C)=O)C(C)(C)[C@@H]5CC[C@]43C)[C@@H]12 [NVX-207, 3-O-acetylbetulinic acid-2-amino-3-hydroxy-2-hydroxymethylpropyl ester]
Increase in solubility in DMSO compared to betulinic acid ([1]; DMSO): over 20 fold
Increase in solubility in ethanol compared to betulinic acid ([1]; ethanol): over 300 fold
solubility ([1]; Solubility in DMSO): 250 mg/mL (≈ 415 mM)
solubility ([1]; Solubility in ethanol): ≥ 300 mg/mL
IC50 (MDA-MB-468): 3.6 µM
IC50 (MCF-7): 4 µM
IC50 (Melanoma-TLM1): 3.8 µM
Mean survival, percentage of control-treated cells ([2]; 30% confluency): 18.3%
Mean survival, percentage of control-treated cells ([2]; 80% confluency): 90.3%
More effective at 30% confluency compared to 80% confluency ([2]; endothelial cells): ~5 fold
Reduction of tumor ([3]; 1% topical solution in 20% ethanol, 20% Tween 80 every second to third day, after 3 weeks): about 90%
Inflammation during treatment ([3]; topical): absence of inflammation
Inflammation during treatment [4]: absence of inflammation
